# In patent publication US7642239B2, “Inhibition of placenta growth factor (PLGF) mediated metastasis and/or angiogenesis” (Center for Molecular Medicine and Immunology, priority 2005, dated 2010):
# Marks after values point to notes of the source that are not given here.
# T1: PlGF (Homo sapiens, UniProt P49763)
# T1 construct: purchased R&D Systems
# T1 sequence (P49763 19-170 isoform P49763-3 limits assumed): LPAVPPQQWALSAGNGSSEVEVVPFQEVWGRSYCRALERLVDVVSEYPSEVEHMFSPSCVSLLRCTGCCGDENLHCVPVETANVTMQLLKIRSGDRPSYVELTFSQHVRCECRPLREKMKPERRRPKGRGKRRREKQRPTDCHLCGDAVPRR
# T2: VEGF165 (Homo sapiens, UniProt P15692)
# T2 construct: purchased R&D Systems
# T2 sequence (P15692 27-191 isoform P15692-4): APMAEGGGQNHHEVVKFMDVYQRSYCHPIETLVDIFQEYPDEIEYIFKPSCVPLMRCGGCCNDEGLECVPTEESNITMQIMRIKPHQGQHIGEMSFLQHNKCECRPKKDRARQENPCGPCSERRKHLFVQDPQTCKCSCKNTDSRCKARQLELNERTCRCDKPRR
# Key:
# [1] = biological target: T1, PlGF; test: Free peptide binding ELISA (FLAG epitope probe), PlGF-coated wells; conditions: free peptide; BP3, BP4, BP3scr at up to 50 μM
# Method: (§1) Competition assays were done with 2.5 or 25 U/ml heparin (Sigma, St. Louis, Mo.). BP1, 3, 4, and a scrambled version of BP3 (scrBP3) were synthesized with a linker followed by the FLAG epitope ([…] SEQ ID NO:5) at the C-terminus. Thirty minutes after addition of the first reagent, the second reagent was added, followed by another 30 minute incubation. Peptide binding was assessed by probing for the FLAG epitope (Prickett et al., Biotechniques 7:580-9, 1989; Castrucci et al., J. Virol. 66:4647-53, 1992). Absorbance was read at 490 nm.
# [2] = biological target: T2, VEGF165; test: Free peptide binding ELISA (FLAG epitope probe), VEGF-coated wells; conditions: ELISA-based binding assay
# Method: as §1
# [3] = biological target: T3, recombinant human Flt-1 fusion protein (Homo sapiens, UniProt P17948); test: Free peptide binding and competition ELISA, Flt-1-coated wells; conditions: ELISA-based binding assay
# T3 construct: purchased R & D Systems
# T3 sequence (P17948 with tags, fused parts or gaps limits assumed): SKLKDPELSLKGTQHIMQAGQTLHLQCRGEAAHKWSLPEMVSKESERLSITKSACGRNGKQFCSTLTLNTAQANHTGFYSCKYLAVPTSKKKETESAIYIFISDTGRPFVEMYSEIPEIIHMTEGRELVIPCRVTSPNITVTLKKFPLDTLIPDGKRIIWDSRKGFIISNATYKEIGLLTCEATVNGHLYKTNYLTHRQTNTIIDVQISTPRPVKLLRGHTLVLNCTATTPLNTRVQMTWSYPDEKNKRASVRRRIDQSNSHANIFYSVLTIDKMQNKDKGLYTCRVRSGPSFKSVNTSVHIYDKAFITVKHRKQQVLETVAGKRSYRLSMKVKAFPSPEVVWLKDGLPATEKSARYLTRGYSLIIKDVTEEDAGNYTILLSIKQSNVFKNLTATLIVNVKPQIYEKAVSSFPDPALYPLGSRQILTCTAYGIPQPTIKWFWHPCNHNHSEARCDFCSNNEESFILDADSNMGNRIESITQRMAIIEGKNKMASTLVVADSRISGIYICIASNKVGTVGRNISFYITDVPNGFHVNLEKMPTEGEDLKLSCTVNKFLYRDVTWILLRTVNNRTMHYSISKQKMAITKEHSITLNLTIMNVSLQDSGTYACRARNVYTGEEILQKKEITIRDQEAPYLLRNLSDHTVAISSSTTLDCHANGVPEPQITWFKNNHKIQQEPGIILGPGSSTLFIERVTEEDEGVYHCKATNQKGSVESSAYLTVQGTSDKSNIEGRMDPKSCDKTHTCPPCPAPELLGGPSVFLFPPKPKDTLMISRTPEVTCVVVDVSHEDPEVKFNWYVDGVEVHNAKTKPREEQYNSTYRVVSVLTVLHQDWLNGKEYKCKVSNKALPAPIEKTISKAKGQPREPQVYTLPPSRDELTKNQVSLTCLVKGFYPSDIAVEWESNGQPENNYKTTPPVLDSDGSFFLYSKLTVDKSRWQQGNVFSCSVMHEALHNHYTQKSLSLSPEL
# Method: as §1
# [4] = tested on: MDA-MB-231; test: Wound-healing (motility) assay, MDA-MB-231; type: cell-based, human; conditions: for Migrating cells: 18-24 h; for inhibition (block) of PlGF-stimulated motility / migration: soluble Flt-1 2 nM, PD98059 50 μM, Wortmannin 5 nM
# Method: (§2) MCF-7, MDA-MB-23 1, and MDA-MB-468 breast tumor cell lines or HECs were seeded onto sterile glass coverslips in Petri dishes or six-well plates. When the cells were 70-80% confluent, the monolayers were scratched with a sterile plastic pipet tip.
# (§3) Inhibitor concentrations were 50 μM PD98059 (PD98) (mitogen activated protein kinase-kinase 1 [MEK1] inhibitor), 5 nM Wortmannin (phosphatidyl inositol 3 kinase [PI3K] inhibitor), or human recombinant soluble Flt-1 (sFlt-1) (R&D Systems). […] Cells were pre-incubated with PD98 and Wortmannin for 15-30 min before addition of PlGF. Stained (Wright-Giemsa) and mounted coverslips were examined microscopically. Five to ten 100× fields were evaluated by counting the number of cells separated from the wound edges and which appeared to be migrating toward the center of the wound. Results are reported as the average number of cells migrating into the wound/100× field. In some cases data from separate experiments were combined to accommodate inclusion of various treatments in the tables.
# (§4) Antibody concentration was 1 μg/ml. MEK1 inhibitor, PD98059 (PD98), 50 μM. PI3K inhibitor, Wortmannin, 5 nM. […] Values for antibody and inhibitor treatments were from separate experiments which included all relevant controls. […] UT denotes untreated controls. *P<0.01 (ANOVA) compared to UT; † P<0.02 (ANOVA) compared to PlGF only. ‡ P<0.001 (ANOVA) compared to PlGF only.
# [5] = tested on: MDA-MB-468; test: Wound-healing (motility) assay, MDA-MB-468; type: cell-based, human; conditions: for Migrating cells: 18-24 h
# Method: as §2, §3, §4
# [6] = tested on: MCF-7; test: Wound-healing (motility) assay, MCF-7; type: cell-based, human; conditions: for Migrating cells: 18-24 h
# Method: as §2, §3, §4
# [7] = tested on: MDA-MB-231; test: Matrigel cell invasion assay, MDA-MB-231; type: cell-based, human; conditions: 24 h
# Method: Cellular invasion was determined by addition of 5×10^4cells to growth factor-reduced Matrigel invasion chambers (BD Biosciences Discovery Labware, Bedford, Mass.) (Taylor et al., 2003b; Passaniti et al., 1992, Lab Invest 67, 519-528). Additives to the Matrigel® plugs were pre-incubated together in a total volume of 100 μl PBS at RT for 10 min, after which each additive was added to the Matrigel. Growth factors (2.0 or 0.2 nM), peptide (2 μg/ml), or antibody (1 μg/ml) were added to cells in low serum (0.1% fetal bovine serum [FBS]) medium. Baseline and chemoattractant-based invasion (10% FBS) were included. The number of invading cells was determined by counting the number of cells on the bottom of the invasion chamber membrane after staining at 100× magnification after 24 h (MDA-MB-231) or 48 h (MCF-7, MDA-MB-468). The results of three to five separate experiments are presented.
# [8] = tested on: MDA-MB-231 s.c. xenograft; test: Subcutaneous MDA-MB-231 xenograft growth and lung metastasis; type: in vivo, nude mice; conditions: subsequent experiment, start at 0.07-0.08 cm^3; 200 μg i.p.; mock 0.25
# Method: The tissue-culture-grown human breast tumor cell line, MDA-MB-231, was implanted subcutaneously (s.c.) on the flanks of nude mice. When tumors were visible, the mice were weighed and the tumors measured. Treatment with peptides was begun when tumors averaged about 0.06-0.12 cm^3 in volume. Mice were treated with 200-μg peptide in PBS by i.p. injection at 3-4-day intervals for 4 weeks. Animals were weighed and the tumors measured at each treatment. In a second experiment, the control peptide, CPA, was included. Three days after the final treatment, tumors and lungs were harvested. Tumor burden of the lungs (from experiment 1) was determined by counting colonies (<20 cells), clusters (>20-100 cells), and nodules (>100 cells) seen in all the lung tissue on a total of 4 slides or sections for each mouse. Data are presented as the average number of each size of metastasis for each treatment group (3-4 mice/group). The total number of each was summed for each treatment group, and divided by the total number of mice in that group. The percent inhibition for metastasis was determined by the formula: % inhibition=(# mock-treated−# treated/# mock-treated)×100.
# To test for therapeutic activity of the peptide, BP1, mice were implanted with human breast cancer cells, MDA-MB-231, which produces lung metastases spontaneously when implanted as a subcutaneous tumor. When the tumors averaged 0.12 cm^3 in volume, either mock-treatment or therapy with BP1 was initiated at 200 μg, two times per week for 4 weeks. […] In a subsequent experiment, treatment was commenced when tumors were 0.07-0.08 cm^3. After 4 weeks of treatment, as described, the mean volume of the mock- and CPA-treated tumors was 0.25 and 0.33 cm^3, respectively, whereas BP1-treated tumors averaged 0.04 cm^3 (P<0.05 BP1 vs. mock- or CPA-treated tumors) (FIG. 3A).
# [9] = tested on: MDA-MB-231 mfp tumor; test: Orthotopic mammary fat pad (mfp) MDA-MB-231 model; type: in vivo, SCID mice
# Description: MDA-MB-231, grown in tissue culture, was also implanted in the mammary fat pad (mfp) of SCID mice (3×10^6 cells, 4-5 mice/group). In this model, large pulmonary metastases are less likely to develop (Richert et al., Breast Cancer Res. 7:R819-27, 2005). Peptide treatment was commenced on day 5 after implantation, when small tumors were palpable in all mice (8 treatments). Three days after the final peptide treatment, tumors were removed and weighed. Lungs were harvested and examined microscopically for metastases, as described above.
# [10] = tested on: MDA-MB-468 xenografts; type: in vivo, mice; conditions: 200 μg/dose i.p., twice-weekly, after 4 weeks
# Method: FIG. 5. Treatment of mice bearing MDA-MB-468 xenografts with peptides BP1 or BP3. Mice were treated every 3-4 days with 200 ug BP as described in Methods. Tumor volume was measured 2×/week. *P<0.05 at days 10, 14, 17 and 24 (change in tumor volume (ANOVA)). FIG. 5A—tumors treated with binding peptide 1. FIG. 5B—tumors treated with binding peptide 3.
# Mice bearing MDA-MB-468 xenografts (average tumor volume: 0.19 cm^3) were treated with i.p. injections of individual peptides (200 μg/dose) (FIG. 5). After 4 weeks of twice-weekly treatment, tumor growth was inhibited by 49% and 58% in mice treated with BP1 (FIG. 5A) or BP3 (FIG. 5B), respectively. The effect of BP3 on tumor growth was apparent after 2 weeks of treatment (FIG. 5B), whereas the inhibitory effect of BP1 was evident after one week (FIG. 5A). The average changes in individual tumor volumes during treatment with BP1 were significant (P<0.05) at days 10, 14, 17 and 24 (FIG. 5A). Treatment with BP2 was ineffective; tumors continued to grow at almost the same rate as the mock-treated controls (results not shown). BP4 treatment produced a 20% inhibition of tumor growth (results not shown).
# [11] = VEGF 2 nM ± test agent, relative to VEGF-only value, unit assumed
# [12] = growth factor PlGF 2 nM ± test agent (Flt-1 2 nM, peptide 2 μM, antibody 1 μg/ml, PD98059 50 μM, Wortmannin 5 nM)
# [13] = growth factor VEGF 2 nM ± test agent (peptide 2 μM, antibody 1 μg/ml)
# [14] = growth factor PlGF 2 nM ± test agent (Flt-1 2 nM, peptide 2 μM, antibody 1 μg/ml)
# [15] = growth factor VEGF 2 nM ± test agent
# [16] = PlGF 2 nM ± test agent, relative to PlGF-only value, unit assumed
# [17] = PlGF 2 nM ± test agent, relative to PlGF-only value
molecule,measurement,setting,value
"CPA: control peptide derived by substituting A for the H, R and D residues in BP1 (SAAYALAIQLAASASSSSCV) [reference compound]",binding to PlGF (in words),[1],bound
same,binding to VEGF (in words),[2],bound
same,attenuated affinity for Flt-1,[3],50%
same,Relative activity,[4]; [11],121%
same,effect on PlGF-stimulated motility (in words),"[4]; antibody 1 μg/ml, peptide 2 μM",had no effect
same,Migrating cells,[4]; [12],39.8 ± 10.6 cells/100× field
same,Migrating cells,[4]; [13],13.4 ± 4.5 cells/100× field
same,Relative activity,[5]; [11],104%
same,Migrating cells,[5]; [14],21.6 ± 6.1 cells/100× field
same,Migrating cells,[5]; [15],14.6 ± 8.0 cells/100× field
same,Relative activity,[6]; [11],111%
same,Migrating cells,[6]; [15],19.4 ± 8.9 cells/100× field
same,"invading cells, PlGF plus peptide",[7]; PlGF-stimulated invasion with added peptide,35±17.3 cells
same,mean tumor volume after 4 weeks of treatment,[8],0.33 cm^3
same,tumor weight,"[9]; 8 peptide treatments, mock-treated 0.423±0.089",0.416 ± 0.083 g
same,micrometastasis counts per mouse,"[9]; lung, mock-treated 3.4±1.9",2.8±1.3
"COc1cccc(-c2cc(=O)c3ccccc3o2)c1N [PD98059, reference compound]",Relative activity,[4]; [16],43%
same,Migrating cells,[4]; [12],18.4 ± 8.0‡ cells/100× field
same,inhibition (block) of PlGF-stimulated motility / migration,[4],68%
"COC[C@H]1OC(=O)c2coc3c2[C@@]1(C)C1=C(C3=O)[C@@H]2CCC(=O)[C@@]2(C)C[C@H]1OC(C)=O [Wortmannin, reference compound]",Relative activity,[4]; [16],39%
same,Migrating cells,[4]; [12],16.4 ± 5.8‡ cells/100× field
same,inhibition (block) of PlGF-stimulated motility / migration,[4],72%
QDDHLTTGR (listed as Homo sapiens) [BP2],tumor growth inhibition,[10],ineffective
VEGF,Migrating cells,[4]; [13],11.1 ± 1.8 cells/100× field
same,Migrating cells,[5]; [15],14.0 ± 11.3 cells/100× field
same,Migrating cells,[6]; [15],12.7 ± 4.1 cells/100× field
same,invading cells,[7]; VEGF 2.0 nM or 0.2 nM,10±8.0 cells
"Flt-1: human recombinant soluble Flt-1 (sFlt-1) (R&D Systems) (protein, left off: large carriers) SKLKDPELSLKGTQHIMQAGQTLHLQCRGEAAHKWSLPEMVSKESERLSITKSACGRNGKQFCSTLTLNTAQANHTGFYSCKYLAVPTSKKKETESAIYIFISDTGRPFVEMYSEIPEIIHMTEGRELVIPCRVTSPNITVTLKKFPLDTLIPDGKRIIWDSRKGFIISNATYKEIGLLTCEATVNGHLYKTNYLTHRQTNTIIDVQISTPRPVKLLRGHTLVLNCTATTPLNTRVQMTWSYPDEKNKRASVRRRIDQSNSHANIFYSVLTIDKMQNKDKGLYTCRVRSGPSFKSVNTSVHIYDKAFITVKHRKQQVLETVAGKRSYRLSMKVKAFPSPEVVWLKDGLPATEKSARYLTRGYSLIIKDVTEEDAGNYTILLSIKQSNVFKNLTATLIVNVKPQIYEKAVSSFPDPALYPLGSRQILTCTAYGIPQPTIKWFWHPCNHNHSEARCDFCSNNEESFILDADSNMGNRIESITQRMAIIEGKNKMASTLVVADSRISGIYICIASNKVGTVGRNISFYITDVPNGFHVNLEKMPTEGEDLKLSCTVNKFLYRDVTWILLRTVNNRTMHYSISKQKMAITKEHSITLNLTIMNVSLQDSGTYACRARNVYTGEEILQKKEITIRDQEAPYLLRNLSDHTVAISSSTTLDCHANGVPEPQITWFKNNHKIQQEPGIILGPGSSTLFIERVTEEDEGVYHCKATNQKGSVESSAYLTVQGTSDKSN",Relative activity,[4]; [17],45
same,Migrating cells,[4]; [12],19.1 ± 8.0† cells/100× field
same,inhibition (block) of PlGF-stimulated motility / migration,[4],55%
same,Relative activity,[5]; [17],53
same,Migrating cells,[5]; [14],7.8 ± 5.9† cells/100× field
same,Relative activity,[6]; [17],47
same,Migrating cells,[6]; [14],10.4 ± 8.2† cells/100× field
same,block of the stimulatory effect of PlGF on motility,[6]; soluble Flt-1 2 nM,67%
